Counter-ions that a name gives are not always drawn. Like-named read-outs stand apart in the source and are kept apart here.

Holding throughout (type): biochemical
For experiment [1], the target named is T1, human JAK2 (a.a. 828-1132) (Homo sapiens, UniProt O60674).
T1 construct: JAK2 (a.a. 828-1132); His tag (N); made in house; host or cells: insect cells (baculovirus)
As to the kind of experiment: In vitro JAK kinase assay (HTRF, phosphorylation of a biotinylated peptide), JAK2. In outline:
(§1)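 Phosphorylation of a biotinylated peptide by the JAK kinase domain, detected by HTRF with Eu-Py20 and SA-APC. ATP was 90 μM for JAK1, 30 μM for JAK2 and 3 μM for JAK3. Reactions ran 1 h at room temperature and were stopped with EDTA, followed by 40 min antibody binding.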

In experiment [2] the target is T2, human JAK3 (a.a. 781-1124) (Homo sapiens, UniProt P52333).
T2 construct: JAK3 (a.a. 781-1124); His tag (N); made in house; host or cells: insect cells (baculovirus)
T2 sequence (P52333 781-1124): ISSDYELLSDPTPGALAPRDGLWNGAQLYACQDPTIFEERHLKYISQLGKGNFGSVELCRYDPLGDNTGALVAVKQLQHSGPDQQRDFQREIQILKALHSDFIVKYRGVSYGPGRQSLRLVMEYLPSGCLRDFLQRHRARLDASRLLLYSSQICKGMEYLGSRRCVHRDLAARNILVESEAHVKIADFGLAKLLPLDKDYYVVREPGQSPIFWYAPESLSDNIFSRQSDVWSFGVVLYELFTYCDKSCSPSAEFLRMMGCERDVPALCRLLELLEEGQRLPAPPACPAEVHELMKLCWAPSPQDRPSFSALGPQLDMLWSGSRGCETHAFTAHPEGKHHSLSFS
Kind of experiment: In vitro JAK kinase assay (HTRF, phosphorylation of a biotinylated peptide), JAK3. The protocol:
The catalytic activity of JAK1, JAK2 or JAK3 was assayed by measuring the phosphorylation of a biotinylated peptide. The phosphorylated peptide was detected by homogenous time resolved fluorescence (HTRF). […] The ATP concentration in the reactions was 90 μM for JAK1, 30 μM for JAK2 and 3 μM for JAK3. Reactions were carried out at room temperature for 1 hr and then stopped with 20 μL 45 mM EDTA, 300 nM SA-APC, 6 nM Eu-Py20 in assay buffer (Perkin Elmer, Boston, Mass.). Binding to the Europium labeled antibody took place for 40 minutes and HTRF signal was measured on a Fusion plate reader (Perkin Elmer, Boston, Mass.).
The catalytic activity of JAK1, JAK2 or JAK3 was assayed by measuring the phosphorylation of a biotinylated peptide. The phosphorylated peptide was detected by homogenous time resolved fluorescence (HTRF). […] Reactions were carried out at room temperature for 1 hr and then stopped with 20 μL 45 mM EDTA, 300 nM SA-APC, 6 nM Eu-Py20 in assay buffer (Perkin Elmer, Boston, Mass.). Binding to the Europium labeled antibody took place for 40 minutes and HTRF signal was measured on a Fusion plate reader (Perkin Elmer, Boston, Mass.).

The target in experiment [3] is T3, human JAK1 (a.a. 837-1142) (Homo sapiens, UniProt P23458).
T3 construct: human JAK1 (a.a. 837-1142); His tag (N); made in house; host or cells: insect cells (baculovirus)
T3 sequence (P23458 849-1154): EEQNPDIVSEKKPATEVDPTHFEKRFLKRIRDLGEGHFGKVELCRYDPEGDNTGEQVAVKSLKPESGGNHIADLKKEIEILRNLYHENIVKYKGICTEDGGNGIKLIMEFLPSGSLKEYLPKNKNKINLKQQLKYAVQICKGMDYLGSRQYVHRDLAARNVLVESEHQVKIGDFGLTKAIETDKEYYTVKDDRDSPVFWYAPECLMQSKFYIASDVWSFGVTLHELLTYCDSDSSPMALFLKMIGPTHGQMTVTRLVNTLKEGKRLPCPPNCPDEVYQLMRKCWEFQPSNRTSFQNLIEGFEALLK
As to the kind of experiment: In vitro JAK kinase assay (HTRF, phosphorylation of a biotinylated peptide), JAK1. The conditions noted are these: read-out: JAK1 IC50. The gist of the method:
as §1

For experiment [4], the target named is TYK2 (Homo sapiens, UniProt P29597). As to the kind of experiment: TYK2 kinase inhibition (Table A1).
Chain of TYK2 (P29597 whole entry): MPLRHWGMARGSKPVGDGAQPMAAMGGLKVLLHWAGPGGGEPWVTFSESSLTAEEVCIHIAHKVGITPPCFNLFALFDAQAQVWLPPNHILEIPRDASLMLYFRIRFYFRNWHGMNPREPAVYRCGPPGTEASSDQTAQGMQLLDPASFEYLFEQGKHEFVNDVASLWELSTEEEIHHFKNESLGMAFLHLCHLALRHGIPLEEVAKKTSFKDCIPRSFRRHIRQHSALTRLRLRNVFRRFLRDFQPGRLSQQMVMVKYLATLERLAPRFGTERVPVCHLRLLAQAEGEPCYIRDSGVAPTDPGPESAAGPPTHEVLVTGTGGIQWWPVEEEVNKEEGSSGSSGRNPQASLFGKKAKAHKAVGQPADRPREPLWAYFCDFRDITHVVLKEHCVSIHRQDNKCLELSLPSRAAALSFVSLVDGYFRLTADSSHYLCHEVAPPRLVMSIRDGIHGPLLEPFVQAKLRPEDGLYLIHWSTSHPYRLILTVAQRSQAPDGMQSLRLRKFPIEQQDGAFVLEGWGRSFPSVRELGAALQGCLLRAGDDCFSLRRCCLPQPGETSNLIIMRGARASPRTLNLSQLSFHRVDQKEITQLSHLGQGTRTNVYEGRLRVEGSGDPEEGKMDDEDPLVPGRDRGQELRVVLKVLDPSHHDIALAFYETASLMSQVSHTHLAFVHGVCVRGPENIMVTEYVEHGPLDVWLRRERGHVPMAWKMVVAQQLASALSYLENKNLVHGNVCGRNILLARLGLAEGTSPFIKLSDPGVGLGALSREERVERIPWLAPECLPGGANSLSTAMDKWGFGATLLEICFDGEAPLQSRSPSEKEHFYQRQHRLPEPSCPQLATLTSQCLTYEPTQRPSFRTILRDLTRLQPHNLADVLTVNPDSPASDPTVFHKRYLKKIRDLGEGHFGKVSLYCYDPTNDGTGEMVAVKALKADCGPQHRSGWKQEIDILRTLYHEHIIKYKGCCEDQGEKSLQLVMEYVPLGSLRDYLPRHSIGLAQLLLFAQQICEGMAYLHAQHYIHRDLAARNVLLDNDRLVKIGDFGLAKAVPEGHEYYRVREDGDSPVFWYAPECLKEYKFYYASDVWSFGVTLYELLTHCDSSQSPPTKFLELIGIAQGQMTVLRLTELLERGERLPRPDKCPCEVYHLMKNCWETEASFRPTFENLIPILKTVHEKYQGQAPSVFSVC

T1 sequence (O60674 828-1132): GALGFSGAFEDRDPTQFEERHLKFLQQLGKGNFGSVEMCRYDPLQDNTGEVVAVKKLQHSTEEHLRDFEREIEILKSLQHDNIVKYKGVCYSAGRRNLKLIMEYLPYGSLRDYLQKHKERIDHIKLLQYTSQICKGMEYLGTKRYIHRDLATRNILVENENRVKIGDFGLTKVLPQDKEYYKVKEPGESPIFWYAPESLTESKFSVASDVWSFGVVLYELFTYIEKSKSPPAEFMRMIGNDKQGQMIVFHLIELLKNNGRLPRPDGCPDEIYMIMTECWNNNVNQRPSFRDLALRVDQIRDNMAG

As for `O=C(Nc1cccnc1)N1CCC(CCOc2ccc3cc2CCc2cncc(c2)Nc2ncc(Cl)c(n2)N3)CC1` [Example D182, 4-(2-{[6-Chloro-2,4,8,18,22-pentaazatetracyclo[14.3.1.1(3,7).1(9,13)]docosa-1(20),3(22),4,6,9(21),10,12,16,18-nonaen-12-yl]oxy}ethyl)-N-pyridin-3-ylpiperidine-1-carboxamide tris(trifluoroacetate)], the concentration for half-maximal inhibition (IC50) in experiment [1] (Table D1) is 180 nM; in experiment [2] (Table D1), above 400 nM; in experiment [3] (Table D1), 68 nM; in experiment [4] (Table D1), above 400 nM.
On to `CCS(=O)(=O)N1CCN(C(=O)COc2ccc3cc2CCc2cncc(c2)Nc2ncc(Cl)c(n2)N3)CC1` [Example D263, 6-Chloro-12-{2-[4-(ethylsulfonyl)piperazin-1-yl]-2-oxoethoxy}-2,4,8,18,22-pentaazatetracyclo[14.3.1.1(3,7).1(9,13)]docosa-1(20),3(22),4,6,9(21),10,12,16,18-nonaene bis(trifluoroacetate)], for which the IC50 in experiment [1] (Table D1) was 180 nM; in experiment [2] (Table D1) it was above 400 nM; in experiment [3] (Table D1), 80 nM; in experiment [4] (Table D1), above 400 nM.
As for `N#Cc1cccc(NC(=O)N2CCN(c3ccc4cc3CCc3cccc(c3)Nc3ncc(Cl)c(n3)N4)CC2)c1` [Example D89, 4-[6-Chloro-2,4,8,22-tetraazatetracyclo[14.3.1.1(3,7).1(9,13)]docosa-1(20),3(22),4,6,9(21),10,12,16,18-nonaen-12-yl]-N-(3-cyanophenyl)piperazine-1-carboxamide bis(trifluoroacetate)], the IC50 in experiment [1] (Table D1) turned out to be 6.7 nM; in experiment [2] (Table D1), 77 nM; in experiment [3] (Table D1) it was 66 nM; in experiment [4] (Table D1) it was 53 nM.
On to `O=C(c1cccnc1)N1Cc2cccc(c2)Nc2ncc(Cl)c(n2)Nc2cccc1c2` [Example C27, 6-Chloro-14-(pyridin-3-ylcarbonyl)-2,4,8,14,22-pentaazatetracyclo[14.3.1.1(3,7).1(9,13)]docosa-1(20),3(22),4,6,9(21),10,12,16,18-nonaene], for which the IC50 worked out at 59 nM in experiment [1], 1290 nM in experiment [2], 43 nM in experiment [3] and 501 nM in experiment [4].
With `Cc1cc(C(=O)N2CCC[C@@H](CC(=O)Nc3ccc4cc3CCc3cncc(c3)Nc3ncc(Cl)c(n3)N4)C2)no1` [Example D208, N-[6-Chloro-2,4,8,18,22-pentaazatetracyclo[14.3.1.1(3,7).1(9,13)]docosa-1(20),3(22),4,6,9(21),10,12,16,18-nonaen-12-yl]-2-{(3S)-1-[(5-methylisoxazol-3-yl)carbonyl]piperidin-3-yl}acetamide bis(trifluoroacetate)], the IC50 in experiment [1] (Table D1) amounted to 15 nM; in experiment [2] (Table D1) it was 64 nM; in experiment [3] (Table D1), 18 nM; in experiment [4] (Table D1), 82 nM.
For `O=C(Cc1nc2ccccc2[nH]1)Nc1ccc2cc1CCc1cccc(c1)Nc1ncc(Cl)c(n1)N2` [Example C44, 2-(1H-Benzimidazol-2-yl)-N-[6-chloro-2,4,8,22-tetraazatetracyclo[14.3.1.1(3,7).1(9,13)]docosa-1(20),3(22),4,6,9(21),10,12,16,18-nonaen-12-yl]acetamide bis(trifluoroacetate)], the IC50 in experiment [1] is 53 nM; in experiment [2] it was 779 nM; in experiment [3], 70 nM; in experiment [4] it was 478 nM.
As to `COCC(=O)N1CCN(C(=O)COc2ccc3cc2CCc2cncc(c2)Nc2ncc(Cl)c(n2)N3)CC1` [Example D262, 6-Chloro-12-{2-[4-(methoxyacetyl)piperazin-1-yl]-2-oxoethoxy}-2,4,8,18,22-pentaazatetracyclo[14.3.1.1(3,7).1(9,13)]docosa-1(20),3(22),4,6,9(21),10,12,16,18-nonaene bis(trifluoroacetate)], the half-inhibitory concentration (IC50) in experiment [1] (Table D1) is above 400 nM; in experiment [2] (Table D1), above 400 nM; in experiment [3] (Table D1), 150 nM; in experiment [4] (Table D1), above 400 nM.
For the compound `O=C(Cc1c[nH]c2ccccc12)Nc1ccc2cc1CCc1cccc(c1)Nc1ncc(Cl)c(n1)N2` [Example C29, N-[6-Chloro-2,4,8,22-tetraazatetracyclo[14.3.1.1(3,7).1(9,13)]docosa-1(20),3(22),4,6,9(21),10,12,16,18-nonaen-12-yl]-2-(1H-indol-3-yl)acetamide bis(trifluoroacetate)], the IC50 in experiment [1] is 68 nM; in experiment [2] it was 1030 nM; in experiment [3], 43 nM; in experiment [4] it was 227 nM.
For `N#Cc1ccc(NC(=O)N2CCC(CCOc3ccc4cc3CCc3cncc(c3)Nc3ncc(Cl)c(n3)N4)CC2)cc1` [Example D174, 4-(2-{[6-Chloro-2,4,8,18,22-pentaazatetracyclo[14.3.1.1(3,7).1(9,13)]docosa-1(20),3(22),4,6,9(21),10,12,16,18-nonaen-12-yl]oxy}ethyl)-N-(4-cyanophenyl)piperidine-1-carboxamide bis(trifluoroacetate)], the IC50 in experiment [1] (Table D1) is above 400 nM; in experiment [2] (Table D1), above 400 nM; in experiment [3] (Table D1), 160 nM; in experiment [4] (Table D1), above 400 nM.
As for `NS(=O)(=O)N1CCN(C(=O)COc2ccc3cc2CCc2cncc(c2)Nc2ncc(Cl)c(n2)N3)CC1` [Example D268, 4-({[6-Chloro-2,4,8,18,22-pentaazatetracyclo[14.3.1.1(3,7).1(9,13)]docosa-1(20),3(22),4,6,9(21),10,12,16,18-nonaen-12-yl]oxy}acetyl)piperazine-1-sulfonamide bis(trifluoroacetate)], the IC50 in experiment [1] (Table D1) is 36 nM; in experiment [2] (Table D1), above 400 nM; in experiment [3] (Table D1), 15 nM; in experiment [4] (Table D1) it was 49 nM.
The matching figures for `O=C(Nc1ccsc1)N1CCC(CCOc2ccc3cc2CCc2cncc(c2)Nc2ncc(Cl)c(n2)N3)CC1` [Example D166, 4-(2-{[6-Chloro-2,4,8,18,22-pentaazatetracyclo[14.3.1.1(3,7).1(9,13)]docosa-1(20),3(22),4,6,9(21),10,12,16,18-nonaen-12-yl]oxy}ethyl)-N-3-thienylpiperidine-1-carboxamide bis(trifluoroacetate)]: 58 nM, above 400 nM, 14 nM and above 400 nM.
Take `CC(=O)N1CCC[C@H](CC(=O)Nc2ccc3cc2CCc2cncc(c2)Nc2ncc(Cl)c(n2)N3)C1` [Example D205, 2-[(3R)-1-Acetylpiperidin-3-yl]-N-[6-chloro-2,4,8,18,22-pentaazatetracyclo[14.3.1.1(3,7).1(9,13)]docosa-1(20),3(22),4,6,9(21),10,12,16,18-nonaen-12-yl]acetamide bis(trifluoroacetate)]: the IC50 in experiment [1] (Table D1) was 15 nM; in experiment [2] (Table D1), 107 nM; in experiment [3] (Table D1) it was 7.1 nM; in experiment [4] (Table D1), 25 nM.
The like results for `COC(=O)N1CCN(C(=O)COc2ccc3cc2CCc2cncc(c2)Nc2ncc(Cl)c(n2)N3)CC1` [Example D261, Methyl 4-({[6-chloro-2,4,8,18,22-pentaazatetracyclo[14.3.1.1(3,7).1(9,13)]docosa-1(20),3(22),4,6,9(21),10,12,16,18-nonaen-12-yl]oxy}acetyl)piperazine-1-carboxylate bis(trifluoroacetate)] were, in that order, 106 nM, above 400 nM, 31 nM and above 400 nM.
The like results for `O=C(CC1CCN(c2nccs2)C1)Nc1ccc2cc1CCc1cncc(c1)Nc1ncc(Cl)c(n1)N2` (stereo not drawn) [Example D154, N-[6-Chloro-2,4,8,18,22-pentaazatetracyclo[14.3.1.1(3,7).1(9,13)]docosa-1(20),3(22),4,6,9(21),10,12,16,18-nonaen-12-yl]-2-[1-(1,3-thiazol-2-yl)pyrrolidin-3-yl]acetamide tris(trifluoroacetate)] were, in that order, 59 nM, above 400 nM, 7.8 nM and 226 nM.
Consider `Cc1cc(C(=O)N2CCC(CC(=O)Nc3ccc4cc3CCc3cccc(c3)Nc3ncc(C)c(n3)N4)CC2)no1` [Example C54, 2-{1-[(5-Methylisoxazol-3-yl)carbonyl]piperidin-4-yl}-N-[6-methyl-2,4,8,22-tetraazatetracyclo[14.3.1.1(3,7).1(9,13)]docosa-1(20),3(22),4,6,9(21),10,12,16,18-nonaen-12-yl]acetamide trifluoroacetate], for which the IC50 is 199 nM in experiment [1], above 200 nM in experiment [2], 65 nM in experiment [3] and 199 nM in experiment [4].
